Data taken from patent US11697646B2, “Triazole N-linked carbamoyl cyclohexyl acids as LPA antagonists” (BRISTOL-MYERS SQUIBB COMPANY, priority 2017, dated 2023).

These molecules were tested against T1, human LPA1 (Homo sapiens, UniProt Q92633) (assay: LPA1 functional antagonist assay (calcium flux)). Details: CHO cells overexpressing human LPA1; calcium flux induced by 10 nM LPA; read-out: hLPA1 IC50.
T1 construct: expressed in transfected cells; host or cells: Chinese hamster ovary (CHO) cells
T1 sequence (Q92633 whole entry): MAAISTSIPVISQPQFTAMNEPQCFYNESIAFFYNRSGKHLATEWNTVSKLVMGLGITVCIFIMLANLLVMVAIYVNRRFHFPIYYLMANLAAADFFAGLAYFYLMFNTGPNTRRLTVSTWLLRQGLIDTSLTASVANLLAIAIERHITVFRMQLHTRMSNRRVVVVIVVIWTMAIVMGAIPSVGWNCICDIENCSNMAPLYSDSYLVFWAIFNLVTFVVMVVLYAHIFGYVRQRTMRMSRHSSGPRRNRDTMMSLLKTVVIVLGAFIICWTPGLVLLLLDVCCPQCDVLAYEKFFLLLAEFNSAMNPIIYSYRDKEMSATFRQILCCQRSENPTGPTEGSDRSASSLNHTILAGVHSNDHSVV
Format: cell-based
Method: The effectiveness of compounds of the present invention as LPA1 inhibitors can be determined in an LPA1 functional antagonist assay as follows:
The cells were then equilibrated to room temperature for 30 minutes before the assay. […] IC50 values were determined by fitting data to a 4-parameter logistic equation (GraphPad Prism, San Diego Calif.).

Compared with CC(C)CCOC(=O)NCc1c(-c2ccc(O[C@@H]3CCC[C@@H](C(=O)O)C3)cc2)nnn1C (racemic) [Example 4, (±)-(trans)-3-(4-(5-((((isopentyloxy)carbonyl)amino)methyl)-1-methyl-1H-1,2,3-triazol-4-yl)phenoxy)cyclohexane-1-carboxylic acid], Cn1nnc(-c2ccc(O[C@@H]3CCC[C@@H](C(=O)O)C3)cc2)c1CNC(=O)OCCC1CC1 (racemic) [Example 39, (±)-trans-3-(4-(5-((((2-cyclopropylethoxy)carbonyl)amino)methyl)-1-methyl-1H-1,2,3-triazol-4-yl)phenoxy)cyclohexane-1-carboxylic acid] is 3.1-fold higher in IC50: 148 nM for the first, 457 nM for the second. The first is the more potent here.

Compared with Cn1nnc(-c2ccc(O[C@H]3CCC[C@H](C(=O)O)C3)cn2)c1CNC(=O)OCC(C)(C)C [Example 26, (1S,3S)-3-((6-(1-methyl-5-((((neopentyloxy)carbonyl)amino)methyl)-1H-1,2,3-triazol-4-yl)pyridin-3-yl)oxy)cyclohexane-1-carboxylic acid], Cn1nnc(-c2ccc(O[C@H]3CCC[C@H](C(=O)O)C3)cn2)c1CNC(=O)OCC1CC(F)C1 (mixture of isomers) [Example 47, (1S,3S)-3-((6-(5-(((((3-fluorocyclobutyl)methoxy)carbonyl)amino)methyl)-1-methyl-1H-1,2,3-triazol-4-yl)pyridin-3-yl)oxy)cyclohexane-1-carboxylic acid] is 19-fold higher in IC50: 44 nM for the first, 854 nM for the second. The first is the more potent here.

Going from CCCC1(COC(=O)NCc2c(-c3ccc(O[C@H]4CCC[C@H](C(=O)O)C4)c(C)n3)nnn2C)CC1 [Example 60, (1S,3S)-3-((2-methyl-6-(1-methyl-5-(((((1-propylcyclopropyl)methoxy)carbonyl)amino)methyl)-1H-1,2,3-triazol-4-yl)pyridin-3-yl)oxy)cyclohexane-1-carboxylic acid] to Cc1nc(-c2nnn(C)c2CNC(=O)OCC2(C)CC2)ccc1O[C@H]1CCC[C@H](C(=O)O)C1 [Example 59, (1S,3S)-3-((2-methyl-6-(1-methyl-5-(((((1-methylcyclopropyl)methoxy)carbonyl)amino)methyl)-1H-1,2,3-triazol-4-yl)pyridin-3-yl)oxy)cyclohexane-1-carboxylic acid], the IC50 rises from 12 nM to 48 nM (4-fold). The first is the more potent here.

Compared with CCc1nc(-c2nnn(C)c2CNC(=O)OC2CCCC2)ccc1O[C@H]1CCC[C@H](C(=O)O)C1 [Example 44, (1S,3S)-3-((6-(5-((((cyclopentyloxy)carbonyl)amino)methyl)-1-methyl-1H-1,2,3-triazol-4-yl)-2-ethylpyridin-3-yl)oxy)cyclo-hexane-1-carboxylic acid], Cc1nc(-c2nnn(C)c2CNC(=O)OC2CCCC2)ccc1O[C@H]1CCC[C@H](C(=O)O)C1 [Example 28] is 2.1-fold lower in IC50: 37 nM for the first, 18 nM for the second. The second is the more potent here.

Compared with CCCC(C)NC(=O)Nc1c(-c2ccc(O[C@H]3CCC[C@H](C(=O)O)C3)c(C)n2)nnn1C (mixture of isomers) [Example 147, (1S,3S)-3-((2-methyl-6-(1-methyl-5-(3-(pentan-2-yl)ureido)-1H-1,2,3-triazol-4-yl)pyridin-3-yl)oxy)cyclo-hexane-1-carboxylic acid], Cc1nc(-c2nnn(C)c2NC(=O)OCC(C)(C)C)ccc1O[C@H]1CCC[C@H](C(=O)O)C1 [Example 67, (1S,3S)-3-((2-methyl-6-(1-methyl-5-(((neopentyloxy)carbonyl)amino)-1H-1,2,3-triazol-4-yl)pyridin-3-yl)oxy)cyclohexane-1-carboxylic acid] is 7.2-fold lower in IC50: 517 nM for the first, 72 nM for the second.

Compared with Cn1nnc(-c2ccc(O[C@H]3CCC[C@H](C(=O)O)C3)c(C(F)F)n2)c1CNC(=O)OCc1ccccc1 [Example 98, (1S,3S)-3-((6-(5-((((benzyloxy)carbonyl)amino)methyl)-1-methyl-1H-1,2,3-triazol-4-yl)-2-(difluoro-methyl)pyridin-3-yl)oxy)cyclohexane-1-carboxylic acid], Cn1nnc(-c2ccc(O[C@H]3CCC[C@H](C(=O)O)C3)cn2)c1CNC(=O)OCCc1ccccc1 [Example 9, (1S,3S)-3-((6-(1-methyl-5-(((phenethoxycarbonyl)amino)methyl)-1H-1,2,3-triazol-4-yl)pyridin-3-yl)oxy)cyclohexane-1-carboxylic acid] is 20-fold higher in IC50: 33 nM for the first, 672 nM for the second. The first is the more potent here.

Cc1nc(-c2nnn(C)c2CN(C)C(=O)NCc2ccccc2)ccc1O[C@H]1CCC[C@H](C(=O)O)C1 [Example 113, (1S,3S)-3-((6-(5-((3-benzyl-1-methylureido)methyl)-1-methyl-1H-1,2,3-triazol-4-yl)-2-methyl-pyridin-3-yl)oxy)cyclohexane-1-carboxylic acid] and Cc1nc(-c2nnn(C)c2CNC(=O)N[C@H](C)c2ccccc2)ccc1O[C@H]1CCC[C@H](C(=O)O)C1 [Example 130, (1S,3S)-3-((2-methyl-6-(1-methyl-5-((3-((R)-1-phenylethyl)ureido)methyl)-1H-1,2,3-triazol-4-yl)pyridin-3-yl)oxy)cyclohexane-1-carboxylic acid] are within 1.5-fold of each other in IC50: 218 nM for the first, 275 nM for the second.

Compared with Cc1nc(-c2nnn(C)c2NC(=O)OCCC(F)(F)F)ccc1O[C@H]1CCC[C@H](C(=O)O)C1 [Example 145, (1S,3S)-3-((2-methyl-6-(1-methyl-5-(((3,3,3-trifluoropropoxy)carbonyl)amino)-1H-1,2,3-triazol-4-yl)pyridin-3-yl)oxy)cyclohexane-1-carboxylic acid], Cc1nc(-c2nnn(C)c2CNC(=O)OCCCC(C)(F)F)ccc1O[C@H]1CCC[C@H](C(=O)O)C1 [Example 206, (1S,3S)-3-((6-(5-(((((4,4-difluoropentyl)oxy)carbonyl)amino)methyl)-1-methyl-1H-1,2,3-triazol-4-yl)-2-methylpyridin-3-yl)oxy)cyclohexane-1-carboxylicacid] is 1.7-fold higher in IC50: 43 nM for the first, 71 nM for the second.

First: Cc1nc(-c2nnn(C)c2CNC(=O)OCC(C)C)c(F)cc1O[C@H]1CCC[C@H](C(=O)O)C1 [Example 213]
Second: Cn1nnc(-c2ccc(O[C@H]3CCC[C@H](C(=O)O)C3)c(C(F)(F)F)n2)c1CNC(=O)OCCCCF [Example 97, (1S,3S)-3-((6-(5-((((4-fluorobutoxy)carbonyl)amino)methyl)-1-methyl-1H-1,2,3-triazol-4-yl)-2-(trifluoro-methyl)pyridin-3-yl)oxy)cyclohexane-1-carboxylic acid]
The IC50 of the first is 15-fold higher: 382 nM for the first, 25 nM for the second. The second is the more potent here.

First: Cc1nc(-c2nnn(C)c2NC(=O)OCC2CCCCC2)ccc1O[C@H]1CCC[C@H](C(=O)O)C1 [Example 76, (1S,3S)-3-((6-(5-(((cyclohexyl-methoxy)carbonyl)amino)-1-methyl-1H-1,2,3-triazol-4-yl)-2-methyl-pyridin-3-yl)oxy)cyclohexane-1-carboxylic acid]
Second: CCCOC(=O)Nc1c(-c2ccc(O[C@H]3CCC[C@H](C(=O)O)C3)cn2)nnn1C [Example 221, (1S,3S)-3-((6-(1-methyl-5-((pro-poxy-carbonyl)amino)-1H-1,2,3-triazol-4-yl)pyridin-3-yl)oxy)cyclohexane-1-carboxylic acid]
The IC50 of the first is 2.2-fold lower: 19 nM for the first, 42 nM for the second.

First: CCCCCOC(=O)N(C)Cc1c(-c2ccc(O[C@H]3CCC[C@H](C(=O)O)C3)cn2)nnn1C [Example 15, (1S,3S)-3-((6-(1-methyl-5-((methyl((pentyloxy)carbonyl)amino)methyl)-1H-1,2,3-triazol-4-yl)pyridin-3-yl)oxy)cyclohexane-1-carboxylic acid]
Second: CCc1nc(-c2nnn(C)c2CNC(=O)N(C)CC2CCC2)ccc1O[C@H]1CCC[C@H](C(=O)O)C1 [Example 148, (1S,3S)-3-((6-(5-((3-(cyclobutyl-methyl)-3-methylureido)methyl)-1-methyl-1H-1,2,3-triazol-4-yl)-2-ethylpyridin-3-yl)oxy)cyclohexane-1-carboxylic acid]
The IC50 of the first is 2.1-fold higher: 130 nM for the first, 62 nM for the second. The second is the more potent here.

Same assay, conditions: human LPA1 functional antagonist assay; read-out: hLPA1 IC50

Going from Cc1nc(-c2nnn(C)c2CNC(=O)O[C@@H](C)C(C)C)ccc1O[C@H]1CCC[C@H](C(=O)O)C1 [Example 173, (1S,3S)-3((2-methyl-6-(1-methyl-5-((((((S)-3-methylbutan-2-yl)oxy)carbonyl)amino)methyl)-1H-1,2,3-triazol-4-yl)pyridin-3-yl)oxy)cyclohexane-1-carboxylic acid] to Cc1nc(-c2nnn(C)c2CNC(=O)O[C@@H](C)C2CC2)ccc1O[C@H]1CCC[C@H](C(=O)O)C1 [Example 176, (1S,3S)-3-((6-(5-(((((S)-1-cyclo-propylethoxy)carbonyl)amino)methyl)-1-methyl-1H-1,2,3-triazol-4-yl)-2-methylpyridin-3-yl)oxy)cyclo-hexane-1-carboxylic acid], the IC50 falls from 167 nM to 106 nM (1.6-fold).

Going from Cc1nc(-c2nnn(C)c2CNC(=O)OC2CC(C)(C)C2)ccc1O[C@H]1CCC[C@H](C(=O)O)C1 [Example 168, (1S,3S)-3-((6-(5-((((3,3-dimethyl-cyclobutoxy)carbonyl)amino)methyl)-1-methyl-1H-1,2,3-triazol-4-yl)-2-methylpyridin-3-yl)oxy)cyclo-hexane-1-carboxylic acid] to Cc1nc(-c2nnn(C)c2CNC(=O)OCCC2CC2)ccc1O[C@H]1CCC[C@H](C(=O)O)C1 [Example 157, (1S,3S)-3-((6-(5-((((2-cyclopropyl-ethoxy)carbonyl)amino)methyl)-1-methyl-1H-1,2,3-triazol-4-yl)-2-methylpyridin-3-yl)oxy)cyclo-hexane-1-carboxylic acid], the IC50 falls from 90 nM to 19 nM (4.7-fold). The second is the more potent here.

Cc1nc(-c2nnn(C)c2CNC(=O)OCC2CCC2)cnc1O[C@H]1CCC[C@H](C(=O)O)C1 [Example 156, (1S,3S)-3-((5-(5-((((cyclobutyl-methoxy)carbonyl)amino)methyl)-1-methyl-1H-1,2,3-triazol-4-yl)-3-methylpyrazin-2-yl)oxy)cyclohexane-1-carboxylic acid] and CC(=O)CCCOC(=O)NCc1c(-c2ccc(O[C@H]3CCC[C@H](C(=O)O)C3)c(C)n2)nnn1C [Example 199, (1S,3S)-3((2-methyl-6-(1-methyl-5-(((((4-oxopentyl)oxy)carbonyl)amino)methyl)-1H-1,2,3-triazol-4-yl)pyridin-3-yl)oxy)cyclohexane-1-carboxylic acid] are within 1.5-fold of each other in IC50: 213 nM for the first, 312 nM for the second.
